# Reference: ChEMBL document CHEMBL6096679, “Recent Progress in the Development of Glucose Transporter (GLUT) Inhibitors” (J Med Chem, 2025)
# Test system: A549
# Experiment: Inhibition of glycolysis in human A549 cells assessed as decrease in HK2 activity incubated for 48 hrs by spectrophotometric assay
# Assay type: functional, cell-based
# Conditions: A549, 48 h
row,IC50,SMILES
1,< 0.1 µM,O=C(COc1cccc(-c2nc3c(c(Nc4ccc(-c5cn[nH]c5)cc4)n2)COC3)c1)NC1CCCC1
2,< 0.1 µM,O=C(COc1cccc(-c2nc3c(c(Nc4ccc(-c5cn[nH]c5)cc4)n2)COC3)c1)NC1CCC1
3,< 0.1 µM,CC(C)NC(=O)COc1cccc(-c2nc(Nc3ccc(-c4cn[nH]c4)cc3)c3sccc3n2)c1
4,< 0.1 µM,CC(C)NC(=O)COc1cccc(-c2nc3c(c(Nc4ccc(-c5cn[nH]c5)cc4)n2)COC3)c1
5,< 0.1 µM,O=C(COc1cccc(-c2nc(Nc3ccc(-c4cn[nH]c4)cc3)c3sccc3n2)c1)NC1CCCC1
6,< 0.1 µM,CCCCC1C(=O)NC2Cc3cccc4ccc(cc34)N1C(=O)COc1cccc(c1)[C@@H](CCc1ccc(OC)c(OC)c1)OC(=O)C1CCCCN1C(=O)C(=O)C(C)(C)COC(=O)/C=C\CCN(C)C(=O)CNC(=O)C(COC(C)(C)C)N(C)C2=O (stereo partly drawn)

# Test system: 3T3-L1
# Experiment: Induction of glucose uptake in mouse 3T3-L1 cells assessed as increase in glucose uptake
# Assay type: functional, cell-based
# Conditions: not given
row,SMILES,IC50
1,O=C(Oc1cccc(OC(=O)c2cccc(O)c2)c1OC(=O)c1cccc(O)c1)c1cccc(O)c1,0.3 µM
2,O=C(Oc1cccc(OC(=O)c2cc(O)c(O)c(O)c2)c1OC(=O)c1cc(O)c(O)c(O)c1)c1cc(O)c(O)c(O)c1,5 µM
3,O=C(Oc1cccc(F)c1OC(=O)c1cccc(O)c1)c1cccc(O)c1,0.5 µM
4,O=C1CC(c2ccc(-c3cc[nH]n3)s2)c2cc(N3CCNC3=O)ccc2N1 (stereo not drawn),33 µM
5,O=C(Nc1ccc(Cl)c(C(F)(F)F)c1)c1ccc(Cl)cc1,61 µM
6,OC[C@H]1O[C@](O)(CO)[C@@H](O)[C@@H]1O,3.9 µM
7,CC(=O)CC(=O)Nc1ccc(Cl)c(C(F)(F)F)c1,68 µM
8,FC(F)(F)c1cc(NC(=S)NCc2ccccc2)ccc1Cl,61 µM
9,O=C1CC(c2cccc3[nH]ccc23)c2ccc(NC(=O)c3cccnc3)cc2N1 (stereo not drawn),28 µM
10,COc1ccc(CN(CC[C@@H](c2ccccc2)[C@H]2CCOC(C)(C)C2)C(=O)c2ccco2)cc1OC,0.11 µM
11,OC[C@H]1OC(O)[C@H](O)[C@@H](O)[C@@H]1O (stereo partly drawn) [DEXTROSE],1.4 µM
12,CC/C=C\C/C=C\C/C=C\C/C=C\C/C=C\C/C=C\CCC(=O)O [DOCONEXENT],0.8 µM
13,N[C@H]1C(O)O[C@H](CO)[C@@H](O)[C@@H]1O (stereo partly drawn) [GLUCOSAMINE],0.9 µM

# Test system: not listed separately
# Experiment: Induction of GLUT1 translocation in mouse 3T3-L1 cells by Western blot analysis
# Assay type: cell-based
# Conditions: not given
row,IC50,SMILES
1,0.09 nM,COc1ccccc1N1CCN(c2ncnc3c2cnn3-c2cc(F)cc(F)c2)CC1
2,0.2 nM,C[C@H](NC(=O)[C@H](Cc1ccc(F)cc1)NC(=O)Cc1cccc(O)c1)c1ccccc1
3,115 nM,CCOc1ccc2nc(-c3cccc(OCC(=O)NC(C)C)c3)nc(Nc3ccc(-c4cn[nH]c4)cc3)c2c1
4,2600 nM,Cc1ccc(CNc2ccc(Cl)cc2NCc2ccc(C)c(O)c2)cc1O
5,14700 nM,O=C(CN1C(=O)S/C(=C/c2ccco2)C1=O)Nc1ccc(Cl)c(Cl)c1
6,11400 nM,O=C(CN1C(=O)S/C(=C/c2ccco2)C1=O)Nc1nc2ccccc2s1
7,0.14 nM,COc1ccc(CC(=O)N[C@@H](Cc2cccc(Br)c2)C(=O)N[C@@H](C)c2ccccc2)cc1
8,5400 nM,O=C(CN1C(=O)S/C(=C/c2ccc(Cl)cc2)C1=O)Nc1ccc(Cl)cc1C(F)(F)F
9,6.2 nM,C[C@@]1(C(=O)NCc2cccnc2)Cn2nc(-c3ccccc3)cc2C(=O)N1Cc1ccc(N2CCOCC2)cc1
10,26600 nM,O=C(CN1C(=O)S/C(=C/c2ccc(F)cc2)C1=O)Nc1cccc(C(F)(F)F)c1
11,12600 nM,O=C(CN1C(=O)S/C(=C/c2ccccc2)C1=O)Nc1nc2c(Cl)cccc2s1

row,SMILES,IC50
1,CCC(C)[C@H]1C(=O)NCC(=O)N(C)CC/C=C/C(=O)OCC(C)(C)C(=O)C(=O)N2CCCC[C@H]2C(=O)O[C@H](CCc2ccc(OC)c(OC)c2)c2cccc(c2)NC(=O)CCC(=O)N(C)[C@@H](CC(C)C)C(=O)N[C@H](Cc2ccccc2)C(=O)N1C (stereo partly drawn),78 nM

# Biological target: T1, Solute carrier family 2, facilitated glucose transporter member 1 (Homo sapiens, UniProt P11166)
# T1 sequence (P11166 whole entry): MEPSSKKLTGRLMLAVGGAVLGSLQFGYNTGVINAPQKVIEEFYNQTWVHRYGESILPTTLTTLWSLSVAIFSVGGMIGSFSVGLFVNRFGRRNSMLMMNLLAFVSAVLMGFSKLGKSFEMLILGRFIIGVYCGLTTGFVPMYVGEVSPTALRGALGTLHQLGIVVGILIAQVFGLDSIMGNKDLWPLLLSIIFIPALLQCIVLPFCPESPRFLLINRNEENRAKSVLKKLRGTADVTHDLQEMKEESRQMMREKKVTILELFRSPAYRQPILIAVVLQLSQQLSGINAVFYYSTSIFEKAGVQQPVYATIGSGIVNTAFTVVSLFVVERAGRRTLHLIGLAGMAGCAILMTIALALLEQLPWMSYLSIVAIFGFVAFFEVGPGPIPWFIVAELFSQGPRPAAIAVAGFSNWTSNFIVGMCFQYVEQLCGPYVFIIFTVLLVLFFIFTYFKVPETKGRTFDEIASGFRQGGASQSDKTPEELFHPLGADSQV
# Experiment: Inhibition of GLUT1 in human wild-type DLD-1 cells assessed as reduction in ATP level measured after 90 mins by Celltiter-glo luminescent assay
# Assay type: cell-based
# Conditions: not given
row,IC50,SMILES
1,11.4 µM,CC(CN1C(=O)S/C(=C\c2ccc(O)c(C(F)(F)F)c2)C1=O)(CC(F)(F)F)CC(F)(F)F
2,7.07 µM,CN(Cc1cccc2ncccc12)C(=O)c1cnn(-c2ncc3c(n2)-c2ccccc2CC3)c1C1CC1
3,1 µM,CC(C)(C)c1ccc(S(=O)(=O)NCc2ccc(C(=O)Nc3cccnc3)cc2)cc1
4,10.8 µM,COc1ccc(-c2ccc(O)c(/C=N/O)c2)cc1F
5,11.1 µM,Cc1nn(C(=O)c2ccncc2)c(C)c1/N=N/c1ccc(Cl)cc1
6,1.67 µM,COc1ccc(-c2ccc(/C(C)=N/O)c(O)c2Cl)cc1
7,6.08 µM,COCc1c(C(=O)N2CCN(c3ccccc3)CC2)cnn1-c1ncc2c(n1)-c1ccccc1CCC2
8,6.32 µM,O=C(COc1ccc(-c2csc3ccccc23)cc1CN1CCN(c2ccccn2)CC1)NCc1nccs1
9,10.6 µM,Cc1cccc(NC(=O)CN2C(=O)N/C(=C/c3cc(C)n(-c4ccc(O)cc4)c3C)C2=O)c1
10,7 µM,C/C(=N\O)c1ccc(-c2ccc(O)c(C)c2)c(Cl)c1O
11,1.89 µM,COc1ccc(-n2cc(-c3ccc(Cl)cc3)nc2NC(=O)CN(Cc2ccccc2)C(=O)c2ccc(C)cc2)cc1OC
12,0.0596 µM,CCOC(=O)Cn1c2c(c3ccccc31)C[C@@H]1C[C@@H]2[C@H](OC)CN1C(=O)c1cccnc1SC
13,2.87 µM,COc1ccccc1N1CCN(C(=O)c2cnn(-c3nccc(-c4cccs4)n3)c2C2CC2)CC1
14,0.162 µM,CCOc1cccc2c1O[C@]1(C)C[C@@H]2NC(=O)N1c1cccc(C(=O)NCCc2ccc(C)cc2)c1
15,0.61 µM,COc1ccc(C2=CC(c3ccc(F)cc3)N(C(=O)CSc3c(C)[nH]c4ccccc34)N2)cc1 (stereo not drawn)
16,38 µM,O=C(Oc1ccc2ccc(=O)oc2c1OC(=O)c1ccc(O)cc1)c1ccc(O)cc1
17,0.29 µM,C/C(=N\O)c1ccc(-c2ccc(O)c(Cl)c2)c(Cl)c1O

# Test system: not listed separately
# Experiment: Induction of GLUT4 translocation in mouse 3T3-L1 cells Cytosol by Western blot analysis
# Assay type: subcellular
# Conditions: not given
row,IC50,SMILES
1,5.8 µM,CS(=O)(=O)c1ccc(Nc2ccc3c(c2)OCO3)c([N+](=O)[O-])c1
2,3.88 µM,Cc1cc(NC(=O)CCC2Cc3ccccc3NC2=O)nc(-c2ccccc2)n1 (stereo not drawn)
3,6.94 µM,Cc1ccccc1CN(Cc1nnc(C(C)(C)C)o1)c1ccc2nc(O)[nH]c2c1
4,7.01 µM,CC(=O)Nc1ccc(S(=O)(=O)Nc2ccc(Nc3cc(N(C)C)nc(C)n3)cc2)cc1

# Biological target: T2, Solute carrier family 2, facilitated glucose transporter member 9 (Homo sapiens, UniProt Q9NRM0)
# T2 sequence (Q9NRM0 whole entry): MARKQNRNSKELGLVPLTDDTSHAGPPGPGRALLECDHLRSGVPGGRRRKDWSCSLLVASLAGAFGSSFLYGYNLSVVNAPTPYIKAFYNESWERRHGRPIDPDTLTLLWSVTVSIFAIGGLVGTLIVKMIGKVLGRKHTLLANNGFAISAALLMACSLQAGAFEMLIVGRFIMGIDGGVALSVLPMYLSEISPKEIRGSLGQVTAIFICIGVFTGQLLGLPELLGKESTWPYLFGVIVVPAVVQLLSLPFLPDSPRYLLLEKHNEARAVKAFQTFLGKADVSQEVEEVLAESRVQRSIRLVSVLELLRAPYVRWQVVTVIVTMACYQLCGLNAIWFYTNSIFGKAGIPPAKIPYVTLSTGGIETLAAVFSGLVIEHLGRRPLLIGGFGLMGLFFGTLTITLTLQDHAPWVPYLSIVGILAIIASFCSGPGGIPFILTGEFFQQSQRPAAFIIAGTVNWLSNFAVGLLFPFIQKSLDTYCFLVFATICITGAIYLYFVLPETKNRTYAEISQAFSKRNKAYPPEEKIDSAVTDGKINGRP
# Experiment: Inhibition of GLUT9 (unknown origin) overexpressed in uric acid-induced HEK293 cells by patch clamp analysis
# Assay type: cell-based
# Conditions: not given
row,IC50,SMILES
1,11.4 µM,CCOC(=O)Cn1c2c(c3ccccc31)C[C@@H]1C[C@@H]2[C@H](OC)CN1C(=O)c1cccnc1SC
2,0.32 µM,CCOc1cccc2c1O[C@]1(C)C[C@@H]2NC(=O)N1c1cccc(C(=O)NCCc2ccc(C)cc2)c1
3,2.63 µM,O=c1cc(-c2ccc(O)cc2)oc2cc(O)cc(O)c12 [APIGENIN]
4,19 µM,COc1cc(/C=C/C(=O)CC(=O)/C=C/c2ccc(O)c(OC)c2)ccc1O [CURCUMIN]
5,49 µM,O=C(CCc1ccc(O)cc1)c1c(O)cc(O)cc1O [PHLORETIN]

row,SMILES,IC50
1,C=C1[C@@H](C)[C@H]2[C@H](Cc3ccccc3)NC(=O)[C@]23OC(=O)/C=C/[C@H](O)CCC[C@@H](C)C/C=C/[C@H]3[C@@H]1O [CYTOCHALASIN B],0.44 µM
